Experimental data taken from ChEMBL document CHEMBL1201862, “PubChem BioAssay data set” (2004).
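Test compounds were applied to cells in 96-well plates for 48 hours at 5 doses. GI50: concentration for 50% inhibition of growth.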 Calls of active or inactive are those of the source. Cut-off read from the data, not from the text of the source: active = GI50 up to about 1.1 µM and inactive = higher.

Key:
Assay in all cases: growth of human tumour cells (NCI), 48 h
PC-3 = test system: PC-3
HL-60 = test system: HL-60
KM12 = test system: KM12
Malme-3M = test system: Malme-3M
UACC-257 = test system: UACC-257
SK-MEL-5 = test system: SK-MEL-5
HCC 2998 = test system: HCC 2998
HT-29 = test system: HT-29
NCI-H460 = test system: NCI-H460
T47D = test system: T47D
HCT-15 = test system: HCT-15
UACC-62 = test system: UACC-62
NCI/ADR-RES = test system: NCI/ADR-RES
HCT-116 = test system: HCT-116
MCF7 = test system: MCF7
COLO 205 = test system: COLO 205
SF-295 = test system: SF-295
DU-145 = test system: DU-145
OVCAR-4 = test system: OVCAR-4
MOLT-4 = test system: MOLT-4

SMILES | GI50 (PC-3) | GI50 (HL-60) | GI50 (KM12) | GI50 (Malme-3M) | GI50 (UACC-257) | GI50 (SK-MEL-5) | GI50 (HCC 2998) | GI50 (HT-29) | GI50 (NCI-H460) | GI50 (T47D) | GI50 (HCT-15) [µM] | GI50 (UACC-62) | GI50 (NCI/ADR-RES) | GI50 (HCT-116) | GI50 (MCF7) | GI50 (COLO 205) | GI50 (SF-295) | GI50 (DU-145) | GI50 (OVCAR-4) | GI50 (MOLT-4)
CC(C)(CCC(C)(C)N1OC1c1ccccc1)N1OC1c1ccccc1 (centres undefined) | 19.9 µM (inactive) | 21 µM (inactive) | 57.1 µM (inactive) | > 100 µM (inactive) | 25.1 µM (inactive) | 17.5 µM (inactive) | 31.9 µM (inactive) | 54.7 µM (inactive) | 33 µM (inactive) | 41.1 µM (inactive) | 28.6 | > 100 µM (inactive) | 58.6 µM (inactive) | 56.8 µM (inactive) | 28.7 µM (inactive) | 47.2 µM (inactive) | 44.5 µM (inactive) | 88.7 µM (inactive) | 86.3 µM (inactive) | 
C=CC[C@]12C[C@@H](C(=O)OC)N(C(=O)OC)[C@H]1N(S(=O)(=O)c1ccccc1)c1ccccc12 | 34.6 µM (inactive) | 29.6 µM (inactive) | 85.5 µM (inactive) | 91.8 µM (inactive) | 45.7 µM (inactive) | 58.5 µM (inactive) | 44.2 µM (inactive) | > 100 µM (inactive) | 73.8 µM (inactive) | 30.9 µM (inactive) | 40.1 |  | 68.2 µM (inactive) | 62.2 µM (inactive) | 41.3 µM (inactive) |  |  | 33.5 µM (inactive) | 47.1 µM (inactive) | 33 µM (inactive)
OCC1OC(n2cnc3c2NC=NC[C@H]3O)CC1O (some centres undefined) | > 500 µM (inactive) | 417 µM (inactive) | 495 µM (inactive) | 458 µM (inactive) | 407 µM (inactive) | 483 µM (inactive) | 387 µM (inactive) |  | 418 µM (inactive) | 258 µM (inactive) | > 500 | 415 µM (inactive) | 462 µM (inactive) | 483 µM (inactive) | 441 µM (inactive) | 472 µM (inactive) | 448 µM (inactive) | 324 µM (inactive) | 470 µM (inactive) | 418 µM (inactive)
O=C(/C=C/c1ccsc1)c1ccco1 | 14.6 µM (inactive) | 7.26 µM (inactive) | 4.8 µM (inactive) |  | 17.3 µM (inactive) | 15.4 µM (inactive) | 12.2 µM (inactive) | 9.95 µM (inactive) | 14.3 µM (inactive) | 11.8 µM (inactive) | 7.24 | 14.6 µM (inactive) | 16.6 µM (inactive) | 5.97 µM (inactive) | 2.21 µM (inactive) | 17.6 µM (inactive) | 14.2 µM (inactive) | 13.6 µM (inactive) | 5.24 µM (inactive) | 4.34 µM (inactive)
